In brackets after ≈: the same amount, converted by molar mass. Activity calls are given as the source filed them. The calls are words filed in the database; no cut-off is given here.
Legend:
[1] = test system: Mycobacterium tuberculosis; experiment: Antitubercular activity against Mycobacterium tuberculosis H37Rv (ATCC 25618) incubated for […] by MABA assay; type: functional
[2] = biological target: T1, Decaprenylphosphoryl-beta-D-ribose oxidase (Mycobacterium tuberculosis (strain ATCC 25618 / H37Rv)) (UniProt P9WJF1); experiment: Time-dependent covalent inhibition of recombinant Mycobacterium tuberculosis DprE1 expressed in Escherichia coli by Amplex Red/peroxidase coupled assay
T1 sequence (whole entry): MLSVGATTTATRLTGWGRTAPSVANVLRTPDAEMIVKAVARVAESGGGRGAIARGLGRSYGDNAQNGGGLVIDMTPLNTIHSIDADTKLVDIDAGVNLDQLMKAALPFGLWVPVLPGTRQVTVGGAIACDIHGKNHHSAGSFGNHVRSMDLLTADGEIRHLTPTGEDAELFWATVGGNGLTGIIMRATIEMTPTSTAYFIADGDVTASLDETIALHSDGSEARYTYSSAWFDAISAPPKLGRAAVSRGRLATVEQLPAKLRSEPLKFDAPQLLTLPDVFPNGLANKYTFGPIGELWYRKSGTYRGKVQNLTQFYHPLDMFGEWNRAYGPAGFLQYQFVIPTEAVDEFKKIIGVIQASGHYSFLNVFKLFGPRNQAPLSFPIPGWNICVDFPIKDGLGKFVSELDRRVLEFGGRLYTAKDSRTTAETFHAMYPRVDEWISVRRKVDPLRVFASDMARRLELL

[3] = Metabolic stability in NADPH-fortified human liver microsomes assessed as CYP450-mediated stability incubated for 120 mins by LC/MS analysis; type: ADME, Microsome; details: 2 h
[4] = Metabolic stability in NADPH-fortified mouse liver microsomes assessed as CYP450-mediated stability incubated for 120 mins by LC/MS analysis; type: ADME, Microsome; details: 2 h
[5] = biological target: T2, Decaprenylphosphoryl-beta-D-ribose oxidase (Mycobacterium tuberculosis (strain ATCC 25618 / H37Rv), UniProt P9WJF1); experiment: Inhibition of recombinant Mycobacterium tuberculosis DprE1 expressed in Escherichia coli measured after 120 mins by Amplex Red/peroxidase coupled assay
T2 sequence (P9WJF1 whole entry): T1 sequence (whole entry)

[6] = Tmax in ICR mouse at 25 micromol/kg, po measured after 24 hrs by LC-MS/MS analysis; type: ADME, organism-based; details: in vivo, dose 25 µmol/kg
[7] = Cmax in ICR mouse at 25 micromol/kg, po measured after 24 hrs by LC-MS/MS analysis; type: ADME, organism-based; details: in vivo, dose 25 µmol/kg
[8] = AUC (0 to 24 hrs) in ICR mouse at 25 micromol/kg, po by LC-MS/MS analysis; type: ADME, organism-based; details: in vivo, po, dose 25 µmol/kg
[9] = Elimination half life in ICR mouse at 25 micromol/kg, po measured after 24 hrs by LC-MS/MS analysis; type: ADME, organism-based; details: in vivo, dose 25 µmol/kg, read-out: beta t1/2 (converted)
[10] = MRT in ICR mouse at 25 micromol/kg, po measured after 24 hrs by LC-MS/MS analysis; type: ADME, organism-based; details: in vivo, dose 25 µmol/kg
[11] = Oral bioavailability in ICR mouse at 25 micromol/kg measured after 24 hrs by LC-MS/MS analysis; type: ADME, organism-based; details: in vivo, po, 24 h, at 25 µmol/kg
[12] = AUC (0 to 8 hrs) in ICR mouse at 5 micromol/kg, iv by LC-MS/MS analysis; type: ADME, organism-based; details: in vivo, iv, dose 5 µmol/kg
[13] = Drug concentration in ICR mouse plasma at 5 micromol/kg, iv measured after 5 mins by LC-MS/MS analysis; type: ADME, organism-based; details: dose 5 µmol/kg
[14] = Elimination half life in ICR mouse at 5 micromol/kg, iv measured after 24 hrs by LC-MS/MS analysis; type: ADME, organism-based; details: in vivo, dose 5 µmol/kg, read-out: beta t1/2 (converted)
[15] = MRT in ICR mouse at 5 micromol/kg, iv measured after 24 hrs by LC-MS/MS analysis; type: ADME, organism-based; details: in vivo, dose 5 µmol/kg
[16] = Volume of distribution at steady state in ICR mouse at 5 micromol/kg, iv measured after 24 hrs by LC-MS/MS analysis; type: ADME, organism-based; details: in vivo, dose 5 µmol/kg, read-out: Vdss
[17] = Total plasma clearance in ICR mouse at 5 micromol/kg, iv measured after 24 hrs by LC-MS/MS analysis; type: ADME, organism-based; details: dose 5 µmol/kg
[18] = Protein binding in mouse plasma assessed as unbound fraction incubated for 24 hrs by equilibrium dialysis based LC/MS analysis; type: ADME, cell-free
[19] = Aqueous solubility of the compound in PBS buffer at pH 6.82 incubated for 4 hrs by HPLC analysis; type: physicochemical

With `CN(C/C=C\c1ccccc1)c1nc(=O)c2cc(C(F)(F)F)cc([N+](=O)[O-])c2s1` the MIC [1] was 0.045 µM (≈ 0.019 µg/mL) and the TDI [2] was “Active”.

For `CN(CC#Cc1cccs1)c1nc(=O)c2cc(C(F)(F)F)cc([N+](=O)[O-])c2s1`, the MIC [1] was 0.014 µM (≈ 0.00596 µg/mL), the TDI [2] was “Active” and the Stability [3] was “Stable”. The Stability [4] was “Stable”.

With `CN(CC#CC1CCCCC1)c1nc(=O)c2cc(C(F)(F)F)cc([N+](=O)[O-])c2s1` the MIC [1] was 0.002 µM (≈ 0.000851 µg/mL), the IC50 [5] was 18 nM and the TDI [2] was “Active”.

`CN(C/C=C/C1CCCC1)c1nc(=O)c2cc(C(F)(F)F)cc([N+](=O)[O-])c2s1` showed an MIC [1] of 0.002 µM (≈ 0.000827 µg/mL).

`C#CCN(C)c1nc(=O)c2cc(C(F)(F)F)cc([N+](=O)[O-])c2s1` showed an MIC [1] of 1.4 µM (≈ 0.479 µg/mL).

Molecule `CN(CC#CC(O)CN1CCCCC1)c1nc(=O)c2cc(C(F)(F)F)cc([N+](=O)[O-])c2s1` (stereo unspecified) has an MIC [1] of 1.05 µM (≈ 0.493 µg/mL).

`CN(CC#CCN1CCCCC1)c1nc(=O)c2cc(C(F)(F)F)cc([N+](=O)[O-])c2s1` showed an MIC [1] of 0.127 µM (≈ 0.0559 µg/mL).

Molecule `CN(Cc1cn(-c2ccccc2)nn1)c1nc(=O)c2cc(S(C)(=O)=O)cc([N+](=O)[O-])c2s1` has an MIC [1] of 0.047 µM (≈ 0.0222 µg/mL).

For `CN(C/C=C/C1CC1)c1nc(=O)c2cc(C(F)(F)F)cc([N+](=O)[O-])c2s1`, the MIC [1] was 0.023 µM (≈ 0.00886 µg/mL).

In the case of `CN(CC#CC1CCCC1)c1nc(=O)c2cc(C(F)(F)F)cc([N+](=O)[O-])c2s1`, the MIC [1] is reported as 0.005 µM (≈ 0.00206 µg/mL).

In the case of `CN(CC#CCN1CC[S+]([O-])CC1)c1nc(=O)c2cc(C(F)(F)F)cc([N+](=O)[O-])c2s1`, the MIC [1] is reported as 1.05 µM (≈ 0.498 µg/mL).

With `CN(CC#CCN1CCSC1)c1nc(=O)c2cc(C(F)(F)F)cc([N+](=O)[O-])c2s1` the MIC [1] was 0.029 µM (≈ 0.0129 µg/mL).

`CN(CC#Cc1ccc2c(c1)OCO2)c1nc(=O)c2cc(C(F)(F)F)cc([N+](=O)[O-])c2s1` gave an MIC [1] of 0.145 µM (≈ 0.0672 µg/mL).

In the case of `CN(CC#Cc1ccccc1F)c1nc(=O)c2cc(C(F)(F)F)cc([N+](=O)[O-])c2s1`, the MIC [1] is reported as 0.011 µM (≈ 0.00481 µg/mL).

In the case of `CN(CC#Cc1cnsc1)c1nc(=O)c2cc(C(F)(F)F)cc([N+](=O)[O-])c2s1`, the MIC [1] is reported as 0.03 µM (≈ 0.0128 µg/mL).

Molecule `CN(C)CCc1ccc(C#CCN(C)c2nc(=O)c3cc(C(F)(F)F)cc([N+](=O)[O-])c3s2)cc1` has an MIC [1] of 1.01 µM (≈ 0.495 µg/mL).

In the case of `CN(CC#Cc1ccc(F)c(F)c1)c1nc(=O)c2cc(C(F)(F)F)cc([N+](=O)[O-])c2s1`, the MIC [1] is reported as 0.013 µM (≈ 0.00592 µg/mL).

For `O=c1nc(N2CCN(CC3CCCCC3)CC2)sc2c([N+](=O)[O-])cc(C(F)(F)F)cc12` [MACOZINONE], the MIC [1] was < 0.0004 µM, the Tmax [6] was 0.38 h and the Cmax [7] was 472 nM. For the same molecule, the AUC [8] was 0.80339 µM·h, the half-life [9] was 1.48 h and the MRT [10] was 2.44 h. For the same molecule, the F [11] was 0.65%, the AUC [12] was 1.18766 µM·h and the concentration at 5 min [13] was 1390 nM. For the same molecule, the half-life [14] was 0.95 h, the MRT [15] was 1.42 h and the Vd [16] was 5.61 L/kg. It also gave a clearance [17] of 65.5 mL/min/kg, a Fu [18] of 0.46% and a solubility at 4 h [19] of 0.01 µg/mL (≈ 0.0219 µM).

In the case of `CN(CC#Cc1ccc(F)cc1F)c1nc(=O)c2cc(C(F)(F)F)cc([N+](=O)[O-])c2s1`, the MIC [1] is reported as 0.007 µM (≈ 0.00319 µg/mL).

Work on `CN(C/C=C\C1CCCCC1)c1nc(=O)c2cc(C(F)(F)F)cc([N+](=O)[O-])c2s1` yielded an MIC [1] of 0.009 µM (≈ 0.00385 µg/mL).

Molecule `CN(CC#CCN1CCOCC1)c1nc(=O)c2cc(C(F)(F)F)cc([N+](=O)[O-])c2s1` has an MIC [1] of 0.106 µM (≈ 0.0469 µg/mL).

Source: ChEMBL document CHEMBL5528009, “Benzothiozinone derivatives with anti-tubercular Activity-Further side chain investigation” (Eur J Med Chem, 2024)
